Test results published in patent publication US12156880B2, “Heterocyclic RIP1 kinase inhibitors” (Rigel Pharmaceuticals, Inc., priority 2021, dated 2024).

Key:
U937 cells = experiment: U937 cell necroptosis assay (TNFa + zVAD, CellTiter-Glo recovery); format: cell-based; conditions: Homo sapiens, U-937, 18 h, TNFa 2 ng/mL + zVAD-fmk, read-out: U937 Zvad TNF CTG Recovery, U937, TNFa + zVAD (IC50)
Method: (§1) In this example, U937 and L929 cells were exposed to compounds of the present disclosure and a cell necroptosis assay was conducted to evaluate the compounds' activity against human RIP1 and murine RIP1.
(§2) U937 and L929 cells were obtained from the American Type Culture Collection (Manassas, VA, USA). Both cells were maintained in logarithmic growth phase in complete RPMI 1640 media (Sigma, ST Louis, MO, USA) supplemented with 10% fetal bovine serum (Sigma, ST Louis, MO, USA) at 37° C. with 5% CO2. For necroptosis assay, L929 cells were plated for 18 h in 100 μL/well medium at 10K cells/well in Costar 96-well black clear-bottom plates (Fisher Scientific, Hampton, NH, USA); U937 cells were plated on the day of the assay in 50 μL/well medium containing 60 uM zVAD-fmk (Lonza, Basel, Switzerland) at 50K cells/well. Medium from L929 cells were removed from the 96-well plates and replaced with 50 μL/well new medium containing 40 uM zVAD-fmk. Each compound of the present disclosure evaluated in this example was serially diluted in DMSO from 2.5 mM in 4-fold dilutions, and then diluted 1:125 in complete medium. 50 μL/well 2× of the compound was then added to the cells in the plates. The cells were pre-incubated with the compound for 1 hour at 37° C. with 5% CO2 and before addition of 10 μL/well 11×TNFa (Peprotech, Rocky Hill, NJ, USA) to give a final concentration of 2 ng/mL for TNFa. The relative amount of necroptosis cells was determined by luminescent using a Wallac Victor2 Luminometer (PerkinElmer, Waltham, MA, USA) and a CellTiter-Glo® Luminescent Cell Viability Reagent Assay (Promega, Madison, WI, USA) added per manufacturer instructions after 18 hours of TNFa stimulation at 37° C. with 5% CO2. This example establishes that embodiments of the compounds described herein have unexpectedly potent activity against human RIP1 and murine RIP1, which allows their assessment in in vivo mouse models of disease.

L929 cells = experiment: L929 cell necroptosis assay (TNFa + zVAD, CellTiter-Glo recovery); format: cell-based, murine; parameters: L929-CTG-recovery, L929, TNFa + zVAD (IC50): unit not given here; conditions: TNFa 2 ng/mL + zVAD-fmk; for IC50: Mus musculus, L929, 18 h, read-out: L929-CTG-recovery, L929, TNFa + zVAD (IC50); for L929-CTG-recovery, L929, TNFa + zVAD (IC50): 18 hours
Method: as §1, §2

RIPK1 = molecular target: T1, RIPK1 (Homo sapiens, UniProt Q13546); experiment: RIPK1 ADP-Glo biochemical kinase assay; conditions: read-out: RIPK1 ADP-Glo Kinase (IC50)
T1 sequence (Q13546 1-671): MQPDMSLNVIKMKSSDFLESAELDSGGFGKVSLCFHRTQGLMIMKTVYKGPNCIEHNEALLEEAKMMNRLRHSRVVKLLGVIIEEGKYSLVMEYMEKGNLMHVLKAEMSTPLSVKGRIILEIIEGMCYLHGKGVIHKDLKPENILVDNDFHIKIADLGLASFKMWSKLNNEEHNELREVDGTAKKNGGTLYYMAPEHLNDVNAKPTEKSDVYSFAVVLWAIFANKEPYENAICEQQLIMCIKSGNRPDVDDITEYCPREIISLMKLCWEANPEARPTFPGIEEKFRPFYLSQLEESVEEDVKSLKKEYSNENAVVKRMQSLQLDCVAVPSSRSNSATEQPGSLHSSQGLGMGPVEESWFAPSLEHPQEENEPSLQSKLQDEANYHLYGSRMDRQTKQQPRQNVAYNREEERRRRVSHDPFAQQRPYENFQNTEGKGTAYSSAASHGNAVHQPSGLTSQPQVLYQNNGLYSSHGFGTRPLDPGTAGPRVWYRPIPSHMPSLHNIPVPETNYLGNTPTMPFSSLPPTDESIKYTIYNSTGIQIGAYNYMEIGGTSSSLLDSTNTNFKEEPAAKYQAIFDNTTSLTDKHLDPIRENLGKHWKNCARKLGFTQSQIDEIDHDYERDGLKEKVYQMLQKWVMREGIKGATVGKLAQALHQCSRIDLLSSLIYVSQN
Method: In this example, compounds of the disclosure were evaluated using a biochemical assay using the ADP-Glo™ technology.
ADP-Glo™ (Promega, Madison, WI, USA) reagents were thawed at ambient temperature. Kinase Detection Reagent was prepared by mixing kinase detection buffer with the lyophilized kinase detection substrate.
A […] stock volume of 5× Reaction Kinase Buffer was made by mixing 1000 μl of 1M MgCl2, 500 μl of 1M Tris-HCL pH7.4, 0.5 mg/ml (25 mg) of BSA, and 3475 μl of distilled H2O. A 3 ml 2× working stock volume of Reaction Kinase Buffer was made containing a final concentration of 100 μM DTT and 4 mM MnCl2.
Components of RIPK1 enzyme (Rigel Pharmaceuticals, South San Francisco, CA, USA) were thawed on ice. Diluted RIPK1 was prepared in 1× Kinase Reaction Buffer (diluted from 2× buffer) to 31 ng/well.
1.0 ul of diluted compound was added to a 384 well plate in duplicate. […] The final reaction volume was 5.0 μl.
The plate was quickly centrifuged and the reaction was incubated at 30° C. for 30 minutes. Adding 5 μl of ADP-Glo™ terminated the reaction. The plate was quickly centrifuged and the reaction was incubated at room temperature for 40 minutes. Kinase Detection Reagent was then added and incubated at room temperature for 30 minutes. The relative light unit (RLU) of kinase reaction was determined by luminescent (Luminescence 0.1 s) using a Wallac Victor2 Luminometer (PerkinElmer, Waltham, MA, USA).

Row | SMILES | IC50 (U937 cells) [nM] | IC50 (L929 cells) [nM] | IC50 (RIPK1) [nM] | L929-CTG-recovery, L929, TNFa + zVAD (IC50) (L929 cells)
1 | CN1C(=O)[C@@H](NC(=O)n2cc(Cc3cccc(F)n3)cn2)COc2ccc(C#CC(O)C(F)(F)F)cc21 (mixture of isomers) [I-105, (±)-4-((6-Fluoropyridin-2-yl)methyl)-N-((3S)-5-methyl-4-oxo-7-(4,4,4-trifluoro-3-hydroxybut-1-yn-1-yl)-2,3,4,5-tetrahydrobenzo[b][1,4]oxazepin-3-yl)-1H-pyrazole-1-carboxamide] | 8.6 | 1540 | 16.8 | 
2 | CN1C(=O)[C@@H](NC(=O)n2cc(Cc3cccc(F)n3)cn2)COc2ccc(C#CC(C)(C)O)cc21 [I-1, (S)-4-((6-Fluoropyridin-2-yl)methyl)-N-(7-(3-hydroxy-3-methylbut-1-yn-1-yl)-5-methyl-4-oxo-2,3,4,5-tetrahydrobenzo[b][1,4]oxazepin-3-yl)-1H-pyrazole-1-carboxamide] | 11.4 | 2300 | 20.6 | 
3 | Cc1cccc(Cc2cnn(C(=O)N[C@H]3COc4ccc(C#CC(C)(C)O)cc4N(C)C3=O)c2)n1 [I-2, (S)—N-(7-(3-Hydroxy-3-methylbut-1-yn-1-yl)-5-methyl-4-oxo-2,3,4,5-tetrahydrobenzo[b][1,4]oxazepin-3-yl)-4-((6-methylpyridin-2-yl)methyl)-1H-pyrazole-1-carboxamide] | 49.7 | 1800 | 42.2 | 
4 | Cc1ccc(Oc2ccnc(C(=O)N[C@H]3COc4ccc(C#CC5(O)COC5)cc4N(C)C3=O)c2)cn1 [I-3, (S)—N-(7-((3-hydroxyoxetan-3-yl)ethynyl)-5-methyl-4-oxo-2,3,4,5-tetrahydrobenzo[b][1,4]oxazepin-3-yl)-4-((6-methylpyridin-3-yl)oxy)picolinamide] | 152 | 3850 | 28.9 | 
5 | Cc1ccc(Oc2ccnc(C(=O)N[C@H]3COc4ccc(C#CC(C)(C)O)cc4N(C)C3=O)c2)cn1 [I-4, (S)—N-(7-(3-hydroxy-3-methylbut-1-yn-1-yl)-5-methyl-4-oxo-2,3,4,5-tetrahydrobenzo[b][1,4]oxazepin-3-yl)-4-((6-methylpyridin-3-yl)oxy)picolinamide] | 361 | 7060 | 55.3 | 
6 | CN1C(=O)[C@@H](NC(=O)c2cc(Oc3ccc(F)nc3)ccn2)COc2ccc(C#CC3(O)COC3)cc21 [I-5, (S)-4-((6-fluoropyridin-3-yl)oxy)-N-(7-((3-hydroxyoxetan-3-yl)ethynyl)-5-methyl-4-oxo-2,3,4,5-tetrahydrobenzo[b][1,4]oxazepin-3-yl)picolinamide] | 34.9 | 2020 | 24.6 | 
7 | CN1C(=O)[C@@H](NC(=O)c2cc(Oc3ccc(F)nc3)ccn2)COc2ccc(C#CC(C)(C)O)cc21 [I-6, (S)-4-((6-fluoropyridin-3-yl)oxy)-N-(7-(3-hydroxy-3-methylbut-1-yn-1-yl)-5-methyl-4-oxo-2,3,4,5-tetrahydrobenzo[b][1,4]oxazepin-3-yl)picolinamide] | 49.6 | 3420 | 40.9 | 
8 | CN1C(=O)[C@@H](NC(=O)c2cc(Cc3cccc(F)n3)ccn2)COc2ccc(C#CC3(O)COC3)cc21 [I-7, (S)-4-((6-fluoropyridin-2-yl)methyl)-N-(7-((3-hydroxyoxetan-3-yl)ethynyl)-5-methyl-4-oxo-2,3,4,5-tetrahydrobenzo[b][1,4]oxazepin-3-yl)picolinamide] | 14.8 | 449 | 18.6 | 
9 | CN1C(=O)[C@@H](NC(=O)n2cc(Cc3ccccn3)cn2)COc2ccc(Br)cc21 [I-18, (S)—N-(7-Bromo-5-methyl-4-oxo-2,3,4,5-tetrahydrobenzo[b][1,4]oxazepin-3-yl)-4-(pyridin-2-ylmethyl)-1H-pyrazole-1-carboxamide] | 286 |  |  | 5013
10 | CN1C(=O)[C@@H](NC(=O)n2cc(Cc3cccc(F)n3)cn2)COc2ccc(Br)cc21 [I-20, (S)—N-(7-Bromo-5-methyl-4-oxo-2,3,4,5-tetrahydrobenzo[b][1,4]oxazepin-3-yl)-4-((6-fluoropyridin-2-yl)methyl)-1H-pyrazole-1-carboxamide] | 50.2 |  |  | 5004
11 | CN1C(=O)[C@@H](NC(=O)n2cc(Cc3cccc(C(F)(F)F)n3)cn2)COc2ccc(Br)cc21 [I-21, (S)—N-(7-Bromo-5-methyl-4-oxo-2,3,4,5-tetrahydrobenzo[b][1,4]oxazepin-3-yl)-4-((6-(trifluoromethyl)pyridin-2-yl)methyl)-1H-pyrazole-1-carboxamide] | 1370 | 30400 |  | 
12 | CN1C(=O)[C@@H](NC(=O)n2cc(Cc3cccnc3)cn2)COc2ccc(Br)cc21 [I-22, (S)—N-(7-Bromo-5-methyl-4-oxo-2,3,4,5-tetrahydrobenzo[b][1,4]oxazepin-3-yl)-4-(pyridin-3-ylmethyl)-1H-pyrazole-1-carboxamide] | 35.1 |  |  | 5004
13 | CN1C(=O)[C@@H](NC(=O)n2cc(Cc3ccncc3)cn2)COc2ccc(Br)cc21 [I-28, (S)—N-(7-Bromo-5-methyl-4-oxo-2,3,4,5-tetrahydrobenzo[b][1,4]oxazepin-3-yl)-4-(pyridin-4-ylmethyl)-1H-pyrazole-1-carboxamide] | 235 |  |  | 5027
14 | CN1C(=O)[C@@H](NC(=O)n2cc(Oc3cccc(F)n3)cn2)COc2ccc(C#CC3CCOCC3)cc21 [I-111, (S)-4-((6-Fluoropyridin-2-yl)oxy)-N-(5-methyl-4-oxo-7-((tetrahydro-2H-pyran-4-yl)ethynyl)-2,3,4,5-tetrahydrobenzo[b][1,4]oxazepin-3-yl)-1H-pyrazole-1-carboxamide] | 7270 | 85200 |  | 
15 | CN1C(=O)[C@@H](NC(=O)c2cc(Oc3ccccn3)ccn2)COc2ccc(C#CC3(O)COC3)cc21 [I-129, (S)—N-(7-((3-hydroxyoxetan-3-yl)ethynyl)-5-methyl-4-oxo-2,3,4,5-tetrahydrobenzo[b][1,4]oxazepin-3-yl)-4-(pyridin-2-yloxy)picolinamide] | 1200 |  | 2280 | 
16 | CN1C(=O)[C@@H](NC(=O)c2cc(Cc3cocn3)ccn2)COc2ccc(C#CC3(O)COC3)cc21 [I-138, (S)—N-(7-((3-hydroxyoxetan-3-yl)ethynyl)-5-methyl-4-oxo-2,3,4,5-tetrahydrobenzo[b][1,4]oxazepin-3-yl)-4-(oxazol-4-ylmethyl)picolinamide] | 12.9 | 106 |  | 
